We go through 14 compounds from PubChem BioAssay (NCI).

Among the test systems are SK-OV-3 ovarian; RPMI-8226 leukemia; IGROV1 ovarian; OVCAR-3 ovarian; U251 CNS; NCI-H226 lung; ACHN renal; UO-31 renal; M14 melanoma.
What all share (assay): growth of human tumour cells (NCI), 48 h

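Compound exposure: 48 hours, 5 concentrations, 96-well plates. GI50 is the concentration that inhibits growth by half. Definition used: TGI = concentration required for complete inhibition of growth.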

On to `CS(=O)(=O)OC1CCC2(C#N)CCC1C2=O` (configuration not stated), for which the TGI in the assay with SK-OV-3 ovarian is > 100 µM; in the assay with RPMI-8226 leukemia it was 44.4 µM; in the assay on IGROV1 ovarian, > 100 µM; in the assay on OVCAR-3 ovarian it was > 100 µM; in the assay on U251 CNS, > 100 µM; with NCI-H226 lung, > 100 µM. In addition, the TGI in the assay on ACHN renal, in the assay on UO-31 renal and with M14 melanoma was > 100 µM each time.

With `O=[N+]([O-])c1ccc(C[P+](c2ccccc2)(c2ccccc2)c2ccccc2)cc1`, the TGI with SK-OV-3 ovarian, in the assay with RPMI-8226 leukemia, with IGROV1 ovarian, with OVCAR-3 ovarian, in the assay on U251 CNS and with NCI-H226 lung was > 100 µM in each case. The TGI in the assay with ACHN renal, in the assay on UO-31 renal and in the assay on M14 melanoma was > 100 µM each time.

Regarding `CC1=C(C(=O)Nc2cc(=O)n(C)c(=O)n2C)C(c2ccco2)C(C(=O)Nc2cc(=O)n(C)c(=O)n2C)=C(C)N1`, the TGI with RPMI-8226 leukemia, with IGROV1 ovarian, in the assay on OVCAR-3 ovarian, with U251 CNS, in the assay with NCI-H226 lung and in the assay with ACHN renal was > 100 µM throughout. The TGI with UO-31 renal and in the assay with M14 melanoma was > 100 µM in each case.

In the case of `CC1(C)O[C@H]2[C@H](O)C[C@](O)(CO)C[C@H]2O1`, the TGI with SK-OV-3 ovarian, with RPMI-8226 leukemia, in the assay on IGROV1 ovarian, with OVCAR-3 ovarian, in the assay on U251 CNS and with NCI-H226 lung was > 100 µM throughout. For the same compound, the TGI in the assay on ACHN renal, with UO-31 renal and with M14 melanoma was > 100 µM each time.

As for `CCc1ccccc1NC(=O)C1=C(C)NC(C)=C(C(=O)Nc2ccccc2CC)C1c1ccccc1Cl`, the TGI in the assay with SK-OV-3 ovarian, in the assay with RPMI-8226 leukemia, in the assay on IGROV1 ovarian, with OVCAR-3 ovarian, in the assay on U251 CNS and with NCI-H226 lung was > 100 µM in each case. Moreover, the TGI in the assay on ACHN renal, with UO-31 renal and in the assay with M14 melanoma was > 100 µM throughout.

In the case of `Cc1c2ccncc2c(C)c2c1[nH]c1ccc(OC(C)C)cc12`, the TGI with SK-OV-3 ovarian was found to be 2.77 µM; with RPMI-8226 leukemia it was 5.12 µM; in the assay with IGROV1 ovarian, 2.79 µM; in the assay with OVCAR-3 ovarian it was 2.98 µM; in the assay with U251 CNS, 2.94 µM; with NCI-H226 lung it was 3.05 µM. The TGI amounted to 2.56 µM with ACHN renal, 2.89 µM with UO-31 renal and 2.96 µM with M14 melanoma.

With `O=C(O)CCC(=O)N1c2ccccc2CC1c1c[nH]c2ccccc12` (configuration not stated), the TGI in the assay with SK-OV-3 ovarian, with RPMI-8226 leukemia, in the assay on IGROV1 ovarian, in the assay with OVCAR-3 ovarian, with U251 CNS and with NCI-H226 lung was > 100 µM each time. For the same compound, the TGI in the assay with ACHN renal, in the assay with UO-31 renal and in the assay on M14 melanoma was > 100 µM throughout.

For the compound `CC1=C(c2ccccc2)C(c2ccccc2)=C(c2ccccc2)C2(c3ccccc3)C(=O)C(C)CN12` (configuration not stated), the TGI with SK-OV-3 ovarian was > 100 µM; in the assay with RPMI-8226 leukemia it was > 100 µM; with IGROV1 ovarian, > 100 µM; in the assay on OVCAR-3 ovarian, > 100 µM; in the assay with U251 CNS, > 100 µM; with NCI-H226 lung it was 84.8 µM. For the same compound, the TGI in the assay with ACHN renal, in the assay with UO-31 renal and in the assay on M14 melanoma was > 100 µM throughout.

Turning to `O=C1N(C2CCCCC2)CC12CCCCC2`, the TGI in the assay with SK-OV-3 ovarian, in the assay with RPMI-8226 leukemia, in the assay on IGROV1 ovarian, in the assay on U251 CNS, with NCI-H226 lung and with ACHN renal was > 100 µM in each case. The TGI in the assay on UO-31 renal and in the assay with M14 melanoma was > 100 µM in each case.

As for `Cc1nnn[n-]1.N.N.N.N.N.[Cl-].[Co+3]`, the GI50 in the assay on SK-OV-3 ovarian is > 100 µM; in the assay on RPMI-8226 leukemia it was > 100 µM; in the assay on IGROV1 ovarian, 2.88 µM; in the assay on OVCAR-3 ovarian, > 100 µM; with U251 CNS it was > 100 µM; in the assay on NCI-H226 lung, > 100 µM. Besides, the GI50 in the assay on ACHN renal, with UO-31 renal and in the assay on M14 melanoma was > 100 µM in each case. The TGI with SK-OV-3 ovarian is > 100 µM; with RPMI-8226 leukemia it was > 100 µM; with IGROV1 ovarian it was 85 µM; with OVCAR-3 ovarian, > 100 µM; with U251 CNS it was > 100 µM; with NCI-H226 lung, > 100 µM. Further, the TGI with ACHN renal, with UO-31 renal and in the assay on M14 melanoma was > 100 µM throughout.

As to `O=C(O)C1=C(O)C(C(=O)O)C23CCCCCCCCCCC12C(C(=O)O)C(O)=C3C(=O)O` (configuration not stated), the TGI with SK-OV-3 ovarian, in the assay on RPMI-8226 leukemia, in the assay with IGROV1 ovarian, in the assay on OVCAR-3 ovarian, in the assay on U251 CNS and in the assay with NCI-H226 lung was > 100 µM throughout. For the same compound, the TGI in the assay on ACHN renal, in the assay on UO-31 renal and in the assay on M14 melanoma was > 100 µM each time.

For the compound `COc1cc(Br)c(C=Nc2cccc3cc(OC)c(OC)cc23)cc1OC`, the TGI was > 100 µM with SK-OV-3 ovarian; > 100 µM in the assay with RPMI-8226 leukemia; > 100 µM in the assay with IGROV1 ovarian; 80.8 µM in the assay on OVCAR-3 ovarian; > 100 µM in the assay with U251 CNS; 82 µM with NCI-H226 lung. The TGI in the assay with ACHN renal, with UO-31 renal and in the assay with M14 melanoma was > 100 µM throughout.

Take `N#CC1(C#N)C2(c3ccccc3)OC(c3ccccc3)(c3cc4ccccc4cc32)C1(C#N)C#N`: the TGI amounted to 37.4 µM in the assay with SK-OV-3 ovarian; 5.34 µM in the assay on RPMI-8226 leukemia; 31.2 µM with IGROV1 ovarian; 28.5 µM with OVCAR-3 ovarian; 35.9 µM in the assay with U251 CNS; 37.2 µM with NCI-H226 lung. In addition, the results for the TGI with ACHN renal, in the assay on UO-31 renal and in the assay with M14 melanoma were 28.5 µM, 26.5 µM and 31.6 µM, respectively.

For `O/N=C1/C(=C/c2ccc3c(c2)OCO3)CCCC1C(NO)c1ccc2c(c1)OCO2` (configuration not stated), the TGI was 94 µM in the assay with SK-OV-3 ovarian; 40.9 µM in the assay on RPMI-8226 leukemia; 86.5 µM in the assay on IGROV1 ovarian; 30.6 µM in the assay with OVCAR-3 ovarian; 45.1 µM in the assay with U251 CNS; > 100 µM with ACHN renal. Further, the values for the TGI in the assay on UO-31 renal and in the assay on M14 melanoma were 58.5 µM and 36.9 µM, respectively.
